For 21 compounds, inhibition and IC50 results are on record in patent publication EP4737451A1 (Dong Wha Pharm. Co., Ltd., priority 2023, dated 2025).

Experiment [1] concerns the target T1, IRAK1 enzyme (Homo sapiens, UniProt P51617).
T1 construct: purchased Promega VA7477
The experiment in a line: IRAK1 enzyme activity inhibition (ADP-Glo, Promega kit). The conditions noted are these: for inhibition at 0.1 µM: test compound 0.1 uM; for inhibition at 1 µM: test compound 1 uM. The experiment is classed as biochemical. On the procedure: An experiment on IRAK1 enzyme activity inhibition of the compound of the present invention was conducted.
An IRAK1 enzyme kit (purchased from Promega, product number: VA7477) was used to dilute a mixed solution between 0.1 µg/µL of protein kinase B (AKT), which is an enzyme-reactive substrate, and 1.25 mM of ATP with a reaction buffer (40 mM Tris-HCl, pH 7.5; 20 mM MgCl2; 0.1 mg/mL BSA; 50 µM DTT) according to the instructions, so as to dispense 2 µL in a 384-well white plate, and then to add 1 µL of a test compound, which was gradient diluted starting from 1 mM, to a 384-well white plate. After that, an IRAK1 enzyme was diluted with a reaction buffer to a final concentration of 5 ng/µL, then 2 µL/well was dispensed into a 384-well white plate and reacted at 37°C for 60 minutes. After completion of a reaction, an ADP-GloTM enzyme test kit (purchased from Promega, product number: V9102) was used to add 5 µL of ADP-Glo reaction reagent and cause a reaction at 37°C for 40 minutes, and then 10 µL of enzyme chromogenic reagent was added again to measure a luminescence signal using equipment for measuring absorbance (THECAN, Microplate Reader). An activity inhibition rate was calculated from a measured value, and a 50% inhibition concentration (IC50 value) was analyzed through a non-linear regression analysis based on the % inhibition for each concentration of the test compound, and is shown in Table 3.

Experiment [2] concerns the target T2, IRAK4 enzyme (Homo sapiens, UniProt Q9NWZ3).
T2 construct: purchased Promega V2621
T2 sequence (Q9NWZ3 1-460): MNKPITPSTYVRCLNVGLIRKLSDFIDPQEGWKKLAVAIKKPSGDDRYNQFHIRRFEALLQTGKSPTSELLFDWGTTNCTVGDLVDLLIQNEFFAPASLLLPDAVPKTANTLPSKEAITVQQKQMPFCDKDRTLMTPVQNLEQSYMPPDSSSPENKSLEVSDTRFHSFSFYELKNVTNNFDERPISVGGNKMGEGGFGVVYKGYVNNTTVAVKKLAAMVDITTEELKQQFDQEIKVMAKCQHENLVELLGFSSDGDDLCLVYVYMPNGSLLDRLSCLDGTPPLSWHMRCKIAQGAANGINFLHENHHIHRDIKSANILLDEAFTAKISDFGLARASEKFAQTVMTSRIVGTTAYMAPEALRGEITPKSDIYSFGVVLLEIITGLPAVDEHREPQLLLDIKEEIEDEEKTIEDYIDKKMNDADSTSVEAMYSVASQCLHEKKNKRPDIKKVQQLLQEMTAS
The experiment in a line: IRAK4 enzyme activity inhibition (ADP-Glo, Promega kit). It counts as biochemical. The conditions noted are these: for inhibition at 0.1 µM: test compound 0.1 uM; for inhibition at 1 µM: test compound 1 uM. On the procedure: An experiment on IRAK4 enzyme activity inhibition of the compound of the present invention was conducted.
An IRAK4 enzyme kit (purchased from Promega, product number: V2621) was used to dilute a mixed solution between 0.1 µg/µL of myelin basic protein (MBP), which is an enzyme-reactive substrate, and 1.25 mM of ATP with a reaction buffer (40 mM Tris-HCl, pH 7.5; 20 mM MgCl2; 0.1 mg/mL BSA; 50 µM DTT) according to the instructions, so as to dispense 2 µL in a 384-well white plate, and then to add 1 µL of a test compound, which was gradient diluted starting from 1 mM, to a 384-well plate. After that, an IRAK4 enzyme was diluted with a reaction buffer to a final concentration of 5 ng/µL, then 2 µL/well was dispensed into a 384-well white plate and reacted at 37°C for 60 minutes. After completion of a reaction, an ADP-GloTM enzyme test kit (purchased from Promega, product number: V9102) was used to add 5 µL of ADP-Glo reaction reagent and cause a reaction at 37°C for 40 minutes, and then 10 µL of enzyme chromogenic reagent was added again to measure a luminescence signal using equipment for measuring absorbance (THECAN, Microplate Reader). An activity inhibition rate was calculated from a measured value, and a 50% inhibition concentration (IC50 value) was analyzed through a non-linear regression analysis based on the % inhibition for each concentration of the test compound, and is shown in Table 2.

T1 sequence (P51617 whole entry): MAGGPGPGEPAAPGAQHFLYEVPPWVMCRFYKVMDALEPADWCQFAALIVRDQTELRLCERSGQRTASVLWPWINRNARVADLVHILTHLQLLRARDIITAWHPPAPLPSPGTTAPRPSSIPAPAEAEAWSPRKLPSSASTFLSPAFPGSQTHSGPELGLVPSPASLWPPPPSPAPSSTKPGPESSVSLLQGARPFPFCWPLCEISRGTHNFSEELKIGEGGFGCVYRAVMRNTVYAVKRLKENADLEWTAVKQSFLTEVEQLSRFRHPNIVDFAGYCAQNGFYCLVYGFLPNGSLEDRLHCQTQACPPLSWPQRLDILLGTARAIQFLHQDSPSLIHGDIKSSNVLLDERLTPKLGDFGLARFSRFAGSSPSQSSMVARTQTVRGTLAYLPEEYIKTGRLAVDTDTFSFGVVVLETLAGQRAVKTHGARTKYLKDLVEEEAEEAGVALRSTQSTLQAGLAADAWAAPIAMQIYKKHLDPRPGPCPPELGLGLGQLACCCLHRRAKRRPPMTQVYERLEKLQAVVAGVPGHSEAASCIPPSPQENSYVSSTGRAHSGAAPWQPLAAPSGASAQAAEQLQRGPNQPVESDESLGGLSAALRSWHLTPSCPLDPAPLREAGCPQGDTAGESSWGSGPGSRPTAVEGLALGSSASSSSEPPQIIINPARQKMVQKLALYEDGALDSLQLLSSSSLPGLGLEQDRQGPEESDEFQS

In experiment [1], `CC(C)(O)CCn1cc2cc(NC(=O)c3cccc(C(N)=O)c3)c(N3CCOCC3)cc2n1` [Example 25, N-(2-(3-hydroxy-3-methylbutyl)-6-morpholino-2H-indazol-5-yl)isophthalamide] showed an inhibition at 0.1 µM of 24.9% and an inhibition at 1 µM of 54.6%. For the same compound, in experiment [2], the IC50 was found to be 78.5 nM and the inhibition at 0.1 µM was 81.3%.
In experiment [2], `CC(C)(O)CCn1cc2cc(NC(=O)c3cncc([N+](=O)[O-])c3)c(-c3ccoc3)cc2n1` [Example 5, N-(6-(furan-3-yl)-2-(3-hydroxy-3-methylbutyl)-2H-indazol-5-yl)-5-nitronicotinamide] had an inhibition at 0.1 µM of 27.9% and an inhibition at 1 µM of 35.4%.
As for `CC(C)(O)CCn1cc2cc(NC(=O)c3cc(F)cc([N+](=O)[O-])c3)c(N3CCOCC3)cc2n1` [Example 24, 3-fluoro-N-(2-(3-hydroxy-3-methylbutyl)-6-morpholino-2H-indazol-5-yl)-5-nitrobenzamide], in experiment [1], the inhibition at 0.1 µM came out at 26.9% and 1 µM produced 45.5% inhibition. In experiment [2], this compound came in with an IC50 of 13.1 nM and an inhibition at 0.1 µM of 83.9%.
For `CN(C)CCn1cc2cc(NC(=O)c3cccc(C(N)=O)c3)c(-c3ccsc3)cc2n1` [Example 1, N-(2-(2-(dimethylamino)ethyl)-6-(thiophen-3-yl)-2H-indazol-5-yl)isophthalamide], the inhibition at 0.1 µM in experiment [1] was found to be 42.4%; in experiment [2] it was 19.1%.
On to `CC(C)(O)CCn1cc2cc(NC(=O)c3cccc([N+](=O)[O-])c3F)c(N3CCOCC3)cc2n1` [Example 22, 2-fluoro-N-(2-(3-hydroxy-3-methylbutyl)-6-morpholino-2H-indazol-5-yl)-3-nitrobenzamide], for which, in experiment [1], the inhibition at 0.1 µM is 30.3% and testing at 1 µM gave an inhibition of 47.2%. Besides, in experiment [2], 40.3 nM corresponded to half-maximal inhibition (IC50) and 0.1 µM produced 88.3% inhibition.
For `CC(C)(O)CCn1cc2cc(NC(=O)c3cccc([N+](=O)[O-])c3)c(-c3ccoc3)cc2n1` [Example 4, N-(6-(furan-3-yl)-2-(3-hydroxy-3-methylbutyl)-2H-indazol-5-yl)-3-nitrobenzamide], in experiment [2], the inhibition at 0.1 µM was determined as 42.1% and the inhibition at 1 µM came out at 67.4%.
In experiment [1], `CC(C)(O)CCn1cc2cc(NC(=O)c3cccc(-c4cn[nH]c4)n3)c(N3CCOCC3)cc2n1` [Example 20, N-(2-(3-hydroxy-3-methylbutyl)-6-morpholino-2H-indazol-5-yl)-6-(1H-pyrazol-4-yl)picolinamide] returned an inhibition at 0.1 µM of 16.5% and an inhibition at 1 µM of 57%. In experiment [2], the IC50 was found to be 15.5 nM and the inhibition at 0.1 µM was found to be 89.6%.
Consider `CC(C)(O)CCn1cc2cc(NC(=O)c3cccc(-c4ccsc4)n3)c(N3CCOCC3)cc2n1` [Example 36, N-(2-(3-hydroxy-3-methylbutyl)-6-morpholino-2H-indazol-5-yl)-6-(thiophen-3-yl)picolinamide], for which, in experiment [1], testing at 0.1 µM gave an inhibition of 5.7% and the inhibition at 1 µM was determined as 12.9%. In addition, in experiment [2], the inhibition at 0.1 µM came to 55.2%.
For the compound `NC(=O)COCCn1cc2cc(NC(=O)c3cccc(S(N)(=O)=O)c3)c(N3CCOCC3)cc2n1` [Example 17, N-(2-(2-(2-amino-2-oxoethoxy)ethyl)-6-morpholino-2H-indazol-5-yl)-3-sulfamoylbenzamide], in experiment [1], testing at 0.1 µM gave an inhibition of 33.1% and the inhibition at 1 µM worked out at 63.4%. In experiment [2], this compound yielded an IC50 of 330 nM and an inhibition at 0.1 µM of 76.7%.
On to `CCOC(=O)[C@H](NC(=O)c1ccc(-c2cc3nn(CCC(C)(C)O)cc3cc2NC(=O)c2cccc(S(N)(=O)=O)c2)cc1)C(C)C` [Example 47, Ethyl (4-(2-(3-hydroxy-3-methylbutyl)-5-(3-sulfamoylbenzamido)-2H-indazol-6-yl)benzoyl)-D-valinate], for which the inhibition at 0.1 µM in experiment [1] was determined as 1.3%; in experiment [2], 56.8%.
On the same counts, the results for `CS(=O)(=O)CCn1cc2cc(NC(=O)c3cccc(S(N)(=O)=O)c3)c(N3CCOCC3)cc2n1` [Example 53, N-(2-(2-(methylsulfonyl)ethyl)-6-morpholino-2H-indazol-5-yl)-3-sulfamoylbenzamide] are 13.9% and 2.7%.
For `CC(C)(O)CCn1cc2cc(NC(=O)c3cccc(C(N)=O)c3)c(-c3ccoc3)cc2n1` [Example 6, N-(6-(furan-3-yl)-2-(3-hydroxy-3-methylbutyl)-2H-indazol-5-yl)isophthalamide], in experiment [2], the inhibition at 0.1 µM came to 35.5% and 1 µM produced 67% inhibition.
On to `CC(C)(O)CCn1cc2cc(NC(=O)c3cccc(-c4nccs4)c3)c(N3CCOCC3)cc2n1` [Example 27, N-(2-(3-hydroxy-3-methylbutyl)-6-morpholino-2H-indazol-5-yl)-3-(thiazol-2-yl)benzamide], for which, in experiment [1], the inhibition at 0.1 µM is 17.6% and the inhibition at 1 µM was 25.3%. In addition, testing at 0.1 µM in experiment [2] gave an inhibition of 57.3%.
`CN(C)CCn1cc2cc(NC(=O)c3cccc(-c4nccs4)c3)c(-c3ccsc3)cc2n1` [Example 12, N-(2-(2-(dimethylamino)ethyl)-6-(thiophen-3-yl)-2H-indazol-5-yl)-3-(thiazol-2-yl)benzamide] registered an inhibition at 0.1 µM in experiment [2] of 31.5%.
In the case of `CN(C)CCn1cc2cc(NC(=O)c3cccc([N+](=O)[O-])c3)c(N3CCOCC3)cc2n1` [Example 10, N-(2-(2-(dimethylamino)ethyl)-6-morpholino-2H-indazol-5-yl)-3-nitrobenzamide], in experiment [2], the IC50 was 99.7 nM, the inhibition at 0.1 µM came out at 49.5% and the inhibition at 1 µM worked out at 83.4%.
In experiment [2], `CC(C)(O)CCn1cc2cc(NC(=O)c3cccc(S(N)(=O)=O)c3)c(-c3ccc(C(=O)NCC(F)(F)F)cc3)cc2n1` [Example 42, N-(2-(3-hydroxy-3-methylbutyl)-6-(4-((2,2,2-trifluoroethyl)carbamoyl)phenyl)-2H-indazol-5-yl)-3-sulfamoylbenzamide] came in with an inhibition at 0.1 µM of 65.1%.
Consider `O=C(Nc1cc2cn(CCN3CCCCC3)nc2cc1N1CCOCC1)c1cccc([N+](=O)[O-])c1` [Example 9, N-(6-morpholino-2-(2-(piperidin-1-yl)ethyl)-2H-indazol-5-yl)-3-nitrobenzamide], for which, in experiment [2], the inhibition at 0.1 µM worked out at 56.9% and 1 µM produced 79.5% inhibition.
For `CC(C)(O)CCn1cc2cc(NC(=O)c3cncc([N+](=O)[O-])c3)c(-c3ccsc3)cc2n1` [Example 7, N-(2-(3-hydroxy-3-methylbutyl)-6-(thiophen-3-yl)-2H-indazol-5-yl)-5-nitronicotinamide], in that order: 28.1% and 57.7%.
In the case of `COCCn1cc2cc(NC(=O)c3cccc([N+](=O)[O-])c3)c(N3CCOCC3)cc2n1` [Example 11, N-(2-(2-methoxyethyl)-6-morpholino-2H-indazol-5-yl)-3-nitrobenzamide], in experiment [2], the inhibition at 0.1 µM was 40.4% and the inhibition at 1 µM is 56.9%.
For `CC(C)(O)CCn1cc2cc(NC(=O)c3cccc([N+](=O)[O-])c3)c(-c3ccsc3)cc2n1` [Example 8, N-(2-(3-hydroxy-3-methylbutyl)-6-(thiophen-3-yl)-2H-indazol-5-yl)-3-nitrobenzamide], in that order: 21.7% and 50.3%.
Regarding `CONC(=O)c1ccc(-c2cc3nn(CCC(C)(C)O)cc3cc2NC(=O)c2cccc(S(N)(=O)=O)c2)cc1` [Example 44, N-(2-(3-hydroxy-3-methylbutyl)-6-(4-(methoxycarbamoyl)phenyl)-2H-indazol-5-yl)-3-sulfamoylbenzamide], the inhibition at 0.1 µM in experiment [2] came to 61.9%.

What is called inhibition is the share of the control response that was lost under treatment. The term IC50 denotes the midpoint of a concentration-inhibition curve. A lower IC50 goes with higher potency.
